Laboratory results as given in ChEMBL document CHEMBL3352025, “Evaluation of the neuroprotective activity of stansin 6, a resin glycoside from Ipomoea stans” (Bioorg Med Chem Lett, 2014).
Active and inactive are the calls of the source. The rule behind the calls is not given here.

Assays:
Rattus norvegicus [1] = assay: Toxicity in rat assessed as convulsions at 10 to 80 mg/kg, ip; assay type: organism-based; set-up: dose 10-80 mg/kg, route intraperitoneal; conditions: in vivo
Rattus norvegicus [2] = assay: Decrease in astrocyte reactivity in kainic acid-induced rat brain inCA3 region at 10 mg/kg, ip by GFAP staining; assay type: functional, organism-based; set-up: dose 10 mg/kg
Rattus norvegicus [3] = assay: Reduction in IL-1beta in kainic acid-induced rat brain at 10 mg/kg, ip; assay type: functional, organism-based; set-up: dose 10 mg/kg
Rattus norvegicus [4] = assay: Anticonvulsant activity in rat assessed as protection against kainic acid-induced death at 10 mg/kg, ip; assay type: functional, organism-based; set-up: dose 10 mg/kg
Rattus norvegicus [5] = assay: Neuroprotective activity in kainic acid-induced rat assessed as decrease in hippocampal neuronal loss at 10 mg/kg, ip; assay type: functional, organism-based; set-up: dose 10 mg/kg
Rattus norvegicus [6] = assay: Reduction in degeneration pattern in kainic acid-induced rat brain inCA3 region at 10 mg/kg, ip by GFAP staining; assay type: functional, organism-based; set-up: dose 10 mg/kg
Rattus norvegicus [7] = assay: Anticonvulsant activity in rat assessed as protection against kainic acid-induced convulsions at 10 mg/kg, ip; assay type: functional, organism-based; set-up: dose 10 mg/kg
Rattus norvegicus [8] = assay: Toxicity in rat assessed as seizures at 10 to 80 mg/kg, ip; assay type: organism-based; set-up: dose 10-80 mg/kg, route intraperitoneal; conditions: in vivo
Rattus norvegicus [9] = assay: Anticonvulsant activity in rat assessed as protection against kainic acid-induced seizures in denate gyrus at 10 mg/kg, ip; assay type: functional, organism-based; set-up: dose 10 mg/kg
Rattus norvegicus [10] = assay: Reduction in TNFalpha in kainic acid-induced rat brain at 10 mg/kg, ip; assay type: functional, organism-based; set-up: dose 10 mg/kg
Rattus norvegicus [11] = assay: Toxicity in rat assessed as hippocampal damage at 10 to 80 mg/kg, ip; assay type: organism-based, Hippocampus; set-up: dose 10-80 mg/kg, route intraperitoneal; conditions: in vivo

Compound: CCCCC[C@H]1CCCCCCCCCC(=O)O[C@@H]2[C@@H](O[C@@H]3O[C@H](C)[C@@H](OC(=O)[C@@H](C)CC)[C@H](O)[C@H]3O)[C@H](C)O[C@@H](O[C@H]3[C@H](O[C@H]4[C@H](O1)O[C@H](C)[C@@H](O)[C@@H]4O)O[C@H](COC(=O)[C@H](C)[C@@H](C)O)[C@@H](O)[C@@H]3O)[C@@H]2OC(=O)[C@@H](C)CC [ORIZABIN XX]
- Activity (Rattus norvegicus [1]): Non-toxic
- Activity (Rattus norvegicus [2]): Active
- Activity (Rattus norvegicus [3]): Active
- Activity (Rattus norvegicus [4]): Active
- Activity (Rattus norvegicus [5]): Active
- Activity (Rattus norvegicus [6]): Active
- inhibition (Rattus norvegicus [7]): Active
- Activity (Rattus norvegicus [8]): Non-toxic
- Activity (Rattus norvegicus [9]): Active
- Activity (Rattus norvegicus [10]): Active
- Activity (Rattus norvegicus [11]): Non-toxic
